Source: PubChem BioAssay AID2060602 (Molecular Pharmacology Branch, DTP, NCI, 2025)
pIC50: −log10 of the molar value. Each block holds one molecule with its values, some of them ahead of it.

System: 648629-189-R-J1-PDC complex spheroids viability
Assay: Anticancer human tumor 648629-189-R-J1-PDC patient-derived bladder carcinoma cell line growth inhibition [CLK]
Conditions: for pIC50: curve of first compound; for viability, T/C: stronger effect = lower value
Outline: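 Patient-derived tumor cells grown as complex spheroids with HUVEC endothelial cells and mesenchymal stem cells, treated with drug combinations. Concentrations descend in half-log steps from near clinical Cmax, or from 10 microM if Cmax unknown.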

[1] = second compound 0.0316 µM, first compound 0.0316 µM
[2] = second compound 0.0316 µM, first compound 0.1 µM
[3] = second compound 0.0316 µM, first compound 0.316 µM
[4] = second compound 0.0316 µM, first compound 1 µM
[5] = second compound 0.1 µM, first compound 0.0316 µM
[6] = second compound 0.1 µM, first compound 0.1 µM
[7] = second compound 0.1 µM, first compound 0.316 µM
[8] = second compound 0.1 µM, first compound 1 µM
[9] = second compound 0.316 µM, first compound 0.0316 µM
[10] = second compound 0.316 µM, first compound 0.1 µM
[11] = second compound 0.316 µM, first compound 0.316 µM
[12] = second compound 0.316 µM, first compound 1 µM
[13] = second compound 1 µM, first compound 0.0316 µM
[14] = second compound 1 µM, first compound 0.1 µM
[15] = second compound 1 µM, first compound 0.316 µM
[16] = second compound 1 µM, first compound 1 µM
[17] = second compound 3.16 µM, first compound 0.0316 µM
[18] = second compound 3.16 µM, first compound 0.1 µM
[19] = second compound 3.16 µM, first compound 0.316 µM
[20] = second compound 3.16 µM, first compound 1 µM
[21] = second compound 10 µM, first compound 0.0316 µM
[22] = second compound 10 µM, first compound 0.1 µM
[23] = second compound 10 µM, first compound 0.316 µM
[24] = second compound 10 µM, first compound 1 µM
[25] = second compound 0.0316 µM, first compound 0.00316 µM
[26] = second compound 0.0316 µM, first compound 0.01 µM
[27] = second compound 0.1 µM, first compound 0.00316 µM
[28] = second compound 0.1 µM, first compound 0.01 µM
[29] = second compound 0.316 µM, first compound 0.00316 µM
[30] = second compound 0.316 µM, first compound 0.01 µM
[31] = second compound 1 µM, first compound 0.00316 µM
[32] = second compound 1 µM, first compound 0.01 µM
[33] = second compound 3.16 µM, first compound 0.00316 µM
[34] = second compound 3.16 µM, first compound 0.01 µM
[35] = second compound 10 µM, first compound 0.00316 µM
[36] = second compound 10 µM, first compound 0.01 µM
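For viability, T/C in this document: drug exposure lasted seven days before viability readout; 100% = DMSO vehicle control wells.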

- pIC50 (second compound 0.0316 µM): 5.23
- pIC50 (second compound 0.1 µM): 5.02
- pIC50 (second compound 0.316 µM): > 7.50
- pIC50 (second compound 1 µM): > 7.50
- pIC50 (second compound 3.16 µM): > 7.50
- pIC50 (second compound 10 µM): > 7.50
SMILES: CC(Nc1ccc2c(c1)OCCn1cc(N3C(=O)OCC3C(F)F)nc1-2)C(N)=O (stereo unspecified) + CNC(=O)c1ccc(Nc2nc(OC3CCCC3)c3c(-c4ccc5nc(C)oc5c4)c[nH]c3n2)c(OC)c1
- viability, T/C [1]: 114%
- viability, T/C [2]: 106%
- viability, T/C [3]: 89.4%
- viability, T/C [4]: 67.8%
- viability, T/C (second compound 0.0316 µM, first compound 3.16 µM): 64.9%
- viability, T/C (second compound 0.0316 µM, first compound 10 µM): 40.6%
- viability, T/C [5]: 95.7%
- viability, T/C [6]: 89.9%
- viability, T/C [7]: 84.1%
- viability, T/C [8]: 77.3%
- viability, T/C (second compound 0.1 µM, first compound 3.16 µM): 62.2%
- viability, T/C (second compound 0.1 µM, first compound 10 µM): 49.6%
- viability, T/C [9]: 27.7%
- viability, T/C [10]: 37.6%
- viability, T/C [11]: 33.7%
- viability, T/C [12]: 34%
- viability, T/C (second compound 0.316 µM, first compound 3.16 µM): 31.2%
- viability, T/C (second compound 0.316 µM, first compound 10 µM): 27.1%
- viability, T/C [13]: 17%
- viability, T/C [14]: 22.3%
- viability, T/C [15]: 18.5%
- viability, T/C [16]: 17.5%
- viability, T/C (second compound 1 µM, first compound 3.16 µM): 16.6%
- viability, T/C (second compound 1 µM, first compound 10 µM): 14.8%
- viability, T/C [17]: 16.7%
- viability, T/C [18]: 20.3%
- viability, T/C [19]: 16.1%
- viability, T/C [20]: 17.8%
- viability, T/C (second compound 3.16 µM, first compound 3.16 µM): 12.9%
- viability, T/C (second compound 3.16 µM, first compound 10 µM): 15.9%
- viability, T/C [21]: 21.5%
- viability, T/C [22]: 19.8%
- viability, T/C [23]: 17.2%
- viability, T/C [24]: 15%
- viability, T/C (second compound 10 µM, first compound 3.16 µM): 21.8%
- viability, T/C (second compound 10 µM, first compound 10 µM): 11.5%

- pIC50 (second compound 0.0316 µM): < 6.00
- pIC50 (second compound 0.1 µM): < 6.00
- pIC50 (second compound 0.316 µM): > 8.50
- pIC50 (second compound 1 µM): > 8.50
- pIC50 (second compound 3.16 µM): > 8.50
- pIC50 (second compound 10 µM): > 8.50
SMILES: CCN1CCN(Cc2ccc(Nc3ncc(F)c(-c4cc(F)c5nc(C)n(C(C)C)c5c4)n3)nc2)CC1 + CNC(=O)c1ccc(Nc2nc(OC3CCCC3)c3c(-c4ccc5nc(C)oc5c4)c[nH]c3n2)c(OC)c1
- viability, T/C [25]: 98.4%
- viability, T/C [26]: 103%
- viability, T/C [1]: 107%
- viability, T/C [2]: 100%
- viability, T/C [3]: 113%
- viability, T/C [4]: 136%
- viability, T/C [27]: 81.3%
- viability, T/C [28]: 92.8%
- viability, T/C [5]: 104%
- viability, T/C [6]: 80.7%
- viability, T/C [7]: 102%
- viability, T/C [8]: 129%
- viability, T/C [29]: 30.2%
- viability, T/C [30]: 28.1%
- viability, T/C [9]: 24.2%
- viability, T/C [10]: 28.4%
- viability, T/C [11]: 36.4%
- viability, T/C [12]: 39.6%
- viability, T/C [31]: 17.2%
- viability, T/C [32]: 23%
- viability, T/C [13]: 19.1%
- viability, T/C [14]: 24.1%
- viability, T/C [15]: 21.5%
- viability, T/C [16]: 31.1%
- viability, T/C [33]: 18.2%
- viability, T/C [34]: 18.6%
- viability, T/C [17]: 20.9%
- viability, T/C [18]: 17.8%
- viability, T/C [19]: 23.9%
- viability, T/C [20]: 25.1%
- viability, T/C [35]: 16.2%
- viability, T/C [36]: 18.9%
- viability, T/C [21]: 18.1%
- viability, T/C [22]: 18.9%
- viability, T/C [23]: 24.3%
- viability, T/C [24]: 23.8%

- pIC50 (second compound 0.0316 µM): 7.03
- pIC50 (second compound 0.1 µM): 7.03
- pIC50 (second compound 0.316 µM): > 8.50
- pIC50 (second compound 1 µM): > 8.50
- pIC50 (second compound 3.16 µM): > 8.50
- pIC50 (second compound 10 µM): > 8.50
SMILES: COc1c(OCCCN2CCOCC2)ccc2c3n(c(=NC(=O)c4cnc(N)nc4)nc12)CCN3 + CNC(=O)c1ccc(Nc2nc(OC3CCCC3)c3c(-c4ccc5nc(C)oc5c4)c[nH]c3n2)c(OC)c1
- viability, T/C [25]: 94.5%
- viability, T/C [26]: 92.6%
- viability, T/C [1]: 88.2%
- viability, T/C [2]: 46.9%
- viability, T/C [3]: 15.3%
- viability, T/C [4]: 8.61%
- viability, T/C [27]: 101%
- viability, T/C [28]: 105%
- viability, T/C [5]: 80.6%
- viability, T/C [6]: 49.1%
- viability, T/C [7]: 17.6%
- viability, T/C [8]: 8.37%
- viability, T/C [29]: 30.4%
- viability, T/C [30]: 31.4%
- viability, T/C [9]: 34.1%
- viability, T/C [10]: 31.3%
- viability, T/C [11]: 17.9%
- viability, T/C [12]: 8.81%
- viability, T/C [31]: 19.9%
- viability, T/C [32]: 19.9%
- viability, T/C [13]: 16.1%
- viability, T/C [14]: 14.5%
- viability, T/C [15]: 11.1%
- viability, T/C [16]: 5.6%
- viability, T/C [33]: 16.3%
- viability, T/C [34]: 15.8%
- viability, T/C [17]: 16.1%
- viability, T/C [18]: 11.2%
- viability, T/C [19]: 7.88%
- viability, T/C [20]: 4.37%
- viability, T/C [35]: 19.9%
- viability, T/C [36]: 18.3%
- viability, T/C [21]: 16.9%
- viability, T/C [22]: 13.4%
- viability, T/C [23]: 9.26%
- viability, T/C [24]: 5.85%
